Values quoted from earlier work, collected in article PMC11859340, “The Therapeutic Potential of Spirooxindoles in Cancer: A Focus on p53–MDM2 Modulation” (Pharmaceuticals, 2025).
Like-named read-outs stand apart in the source and are kept apart here.

Tests used:
[1] = test system: PC3 (prostate); design: method as in PMID 34684885; conditions: MTT; read-out: IC50 against PC3
[2] = test system: HeLa (cervical); design: method as in PMID 37935912; conditions: SRB; read-out: IC50 against HeLa
[3] = test system: p53-wild-type MCF7 (breast cancer) cell line; design: method as in PMID 33725632
[4] = test system: MCF7 (breast); design: method as in PMID 29302672; conditions: at 10 μM, CCK-8
[5] = test system: HCT116 (colon); design: method as in PMID 29302672; conditions: at 10 μM, CCK-8
[6] = test system: A549 (lung); design: method as in PMID 29302672; conditions: at 10 μM, CCK-8
[7] = test system: MCF7 (breast); design: method as in doi:10.31788/RJC.2023.1638506; conditions: MTT; read-out: IC50 against MCF7
[8] = test system: HeLa (cervical); design: method as in doi:10.31788/RJC.2023.1638506; conditions: MTT; read-out: IC50 against HeLa
[9] = test system: MDA-MB-231 “mutant p53”; design: method as in PMID 37731691; conditions: MTT; read-out: IC50 against MDA-MB-231
[10] = test system: MCF7 “wild p53”; design: method as in PMID 37731691; conditions: MTT; read-out: IC50 against MCF7
[11] = test system: SJSA-1 (osteosarcoma cancer cell line with wild p53); design: method as in PMID 30458062; conditions: read-out: IC50 against SJSA-1
[12] = test system: SK-OV-3 (ovarian cancer cell line with mutant p53); design: method as in PMID 30458062; conditions: read-out: IC50 against SK-OV-3
[13] = test system: p53–MDM2; design: method as in PMID 30458062
[14] = test system: p53; design: method as in doi:10.1080/10426507.2020.1723590; conditions: for p53 receptor activation: A549, at 100 μM; for p53 reporter activation: A549, 1.56 to 100 μM compound concentrations
[15] = test system: HepG2 (liver); design: method as in PMID 30508794; conditions: MTT; read-out: IC50 against HepG2
[16] = test system: HCT116 (colon); design: method as in PMID 30508794; conditions: MTT; read-out: IC50 against HCT116
[17] = design: method as in PMID 30508794; conditions: MTT; read-out: IC50 against PC3
[18] = test system: PC3; design: method as in doi:10.3390/separations10040225; conditions: MTT; read-out: IC50 against PC3
[19] = test system: MDA-MB-231; design: method as in doi:10.3390/separations10040225; conditions: MTT; read-out: IC50 against MDA-MB-231
[20] = test system: MCF7 (breast) cancer cell line; design: method as in doi:10.1016/j.molstruc.2023.137026
[21] = test system: A549 (lung); design: method as in doi:10.1080/10426507.2020.1723590; conditions: MTT; read-out: IC50 against A549
[22] = test system: HEK293T (embryonic kidney); design: method as in doi:10.1080/10426507.2020.1723590; conditions: MTT; read-out: IC50 against HEK293T
[23] = test system: PC-3 (p53−); design: method as in PMID 30735387; conditions: MTT; read-out: IC50 against PC-3 (p53−)
[24] = test system: HCT116 (p53^−/−); design: method as in PMID 28987608; conditions: MTT; read-out: IC50 against HCT116 (p53^−/−)
[25] = test system: HCT116 (p53^−/−); design: method as in doi:10.1039/C5MD00450K; conditions: read-out: GI50 against HCT116 (p53^−/−)
[26] = test system: MDA-MB-231 (breast); design: method as in PMID 36174446; conditions: MTT; read-out: IC50 against MDA-MB-231
[27] = test system: A549 (lung); design: method as in PMID 36174446; conditions: MTT; read-out: IC50 against A549
[28] = test system: HCT-116 (colon); design: method as in PMID 36174446; conditions: MTT; read-out: IC50 against HCT-116
[29] = test system: PC3 (prostate); design: method as in PMID 36174446; conditions: MTT; read-out: IC50 against PC3
[30] = test system: HCT116 (p53^+/+); design: method as in PMID 28987608; conditions: MTT; read-out: IC50 against HCT116 (p53^+/+)
[31] = test system: MDA-MB-231 (breast); design: method as in PMID 28987608; conditions: MTT; read-out: IC50 against MDA-MB-231
[32] = test system: HEK 293T (embryonic kidney non-cancer); design: method as in PMID 28987608; conditions: MTT, read-out: IC50 against HEK 293T
[33] = test system: MCF7; design: method as in PMID 28987608; conditions: MTT; read-out: IC50 against MCF7
[34] = test system: MCF7 (breast); design: method as in PMID 26256638; conditions: MTT; read-out: IC50 against MCF7
[35] = test system: PC-3 (prostate); design: method as in PMID 30802707; conditions: MTT; read-out: IC50 against PC-3
[36] = test system: VERO-B (normal) cells
[37] = test system: HepG2 (liver); design: method as in PMID 30802707; conditions: MTT; read-out: IC50 against HepG2
[38] = test system: HCT116 (colon); design: method as in PMID 30802707; conditions: MTT; read-out: IC50 against HCT116

## O=C1/C(=C/c2ccccc2)CCC[C@@]12[C@H](c1ccccc1)[C@H]1C[C@@H]3CCCC[C@@H]3N1[C@]21C(=O)Nc2cc(Cl)ccc21 [70 (R = Ph, R’ = 6-Cl)]
[1]
  IC50: 3.7 ± 1 µM

## O=C1c2ccccc2OC12C(c1ccc(Cl)cc1)C1CCCCN1C21C(=O)Nc2ccccc21 (stereo not shown) [77 (R = H)]
[2]
  IC50: 2.5 ± 0.3 µM

## Cc1noc([C@@H]2[C@@H](c3ccccc3)[C@H](C(F)(F)F)N[C@@]23C(=O)Nc2cc(Cl)ccc23)c1[N+](=O)[O-]
[3]; absence of Fer-1
  IC50: 0.12 µM
[3]; presence of Fer-1
  IC50: 13.5 µM

## O=C(c1ccc(Br)cc1)[C@@H]1S[C@@]2(C(=O)Nc3cccc(Br)c32)[C@@H](c2ccccc2)C[C@@H]1O [146 (R^1/R^2/R^3 = 4-Br, 4-BrC6H4, Ph)]
[4]
  % inhibition, MCF7: 50.9%
[5]
  % inhibition, HCT116: 81.7%
[6]
  % inhibition, A549: 86.9%

## CC(C)(C)OC(=O)N1CCC(c2nc(/C=C3\CCC4(C3=O)C3CCCCN3C3(C(=O)Nc5ccccc53)C4c3csc(C4CCN(C(=O)OC(C)(C)C)CC4)n3)cs2)CC1 (stereo not shown)
[7]
  IC50: 63.4 µM
[8]
  IC50: 76.3 µM

## O=C1N(CCn2cc(CO)nn2)c2cc(Br)ccc2[C@]12[C@@H](c1ccccc1)C(c1ccccc1)=NN2c1ccccc1 [101 (X = (CH2)2)]
[9]
  IC50: 9.3 µM
[10]
  IC50: 11.9 µM

## O=C(O)c1ccc([C@H]2C[C@H]3[C@@H](N2)[C@H](c2cccc(Cl)c2F)C2(C(=O)Nc4cc(Cl)ccc42)N3CC2CC2)cc1 (stereo partly shown) [compound 52, reference compound]
[11]
  IC50: 0.471 µM
[12]
  IC50: > 25 µM
[13]
  IC50: 0.004 µM

## CN1C[C@H](c2ccc(Cl)cc2)[C@]2(NC(=S)N(CC34CC5CC(CC(C5)C3)C4)C2=O)[C@]12C(=O)Nc1ccc(Br)cc12 [89 (R = Br, R’ = 4-ClC6H4)]
[14]
  p53 receptor activation: 2.03 fold

## O=C(O)c1ccc(N2CC3C(C2=O)C(c2cccc(Cl)c2F)C2(C(=O)Nc4cc(Cl)ccc42)N3CC2CC2)cc1 (stereo not shown) [compound 62]
[11]
  IC50: 0.161 µM
[12]
  IC50: > 25 µM
[13]
  IC50: 0.004 µM

## O=C(c1c[nH]c2ccccc12)C1C(c2ccc(C(F)(F)F)cc2)C2CSCN2C12C(=O)Nc1ccccc12 (stereo not shown) [51 (R = 4-F3CC6H4)]
[15]
  IC50: 5.5 ± 0.2 µM
[16]
  IC50: 7 ± 0.27 µM
[17]
  IC50: 6 ± 0.23 µM

## O=C(c1nc2ccccc2[nH]1)[C@H]1[C@H](c2cccs2)C2CC3CCCCC3N2[C@]12C(=O)Nc1ccc(Cl)cc12 (stereo partly shown) [39 (R = 2-thienyl)]
[18]
  IC50: 4.314 ± 0.036 µM
[19]
  IC50: 3.8 ± 0.205 µM

## CN1CC2(NC(=S)N(CC34CC5CC(CC(C5)C3)C4)C2=O)C2(C1)C(=O)Nc1ccccc12 (stereo not shown) [92 (R = H, R’ = Me)]
[14]
  p53 reporter activation: 1.06 to 4.39 folds

## CCCN1C(=O)[C@]2(N[C@@H](c3ccccc3)[C@@]3(Sc4c(C(=O)C(=O)OC)c5ccccc5n4C3=O)[C@H]2C(=O)OC)c2ccc(Cl)cc21
[20]; MCF7, at 200 μg/mL
  cell viability: 80%

## CN1CC2(NC(=S)N(CC34CC5CC(CC(C5)C3)C4)C2=O)C2(C1)C(=O)Nc1ccc(Cl)cc12 (stereo not shown) [92 (R = Cl, R’ = Me)]
[21]
  IC50: 5 ± 0.6 µM
[22]
  IC50: 2.8 ± 0.3 µM

## Cc1noc([C@@H]2[C@@H](c3ccccc3)[C@H](C(F)(F)F)N[C@@]23C(=O)Nc2cc(Br)ccc23)c1[N+](=O)[O-]
[3]; absence of Fer-1
  IC50: 0.17 µM
[3]; presence of Fer-1
  IC50: 13.7 µM

## CC(=O)N1C(=O)[C@@]2(S[C@@H](C(=O)c3ccccc3)[C@@H](O)C[C@@H]2c2ccccc2)c2c(Br)cccc21 [compound 147]
[4]
  % inhibition, MCF7: 77.6%
[5]
  % inhibition, HCT116: 56.4%
[6]
  % inhibition, A549: 70.3%

## COc1ccc(C2=N[C@@H](c3ccc(Cl)cc3)[C@@H](c3ccc(Cl)cc3)N2C(=O)N2CCNC(=O)C2)c(OC(C)C)c1 [nutlin-3a, reference compound]
[21]
  IC50: 14.9 ± 0.6 µM
[23]
  IC50: 28.1 to 29.6 µM
[14]
  p53 reporter activation: 3.6 to 5.1 folds
  p53 receptor activation: 5.1 fold
[22]
  IC50: 10.4 ± 0.8 µM
[24]
  IC50: 47.8 ± 1.9 µM
[25]
  GI50: 47.8 ± 1.9 µM

## COc1cccc2c1C(=O)c1c(O)c3c(c(O)c1C2=O)C[C@@](O)(C(=O)CO)C[C@@H]3O[C@H]1C[C@H](N)[C@H](O)[C@H](C)O1 [doxorubicin, reference compound]
[26]
  IC50: 5.82 ± 0.4 µM
[27]
  IC50: 11.5 ± 0.8 µM
[7]
  IC50: 59.4 µM
[8]
  IC50: 65.3 µM
[28]
  IC50: 13.1 ± 2.1 µM
[29]
  IC50: 8.8 ± 0.3 µM
[1]
  IC50: 1.9 ± 0.4 µM

## O=C1Nc2ccc(Cl)cc2C12N(c1ccccc1)N=C(c1ccccc1)N2c1cccc(Cl)c1 (stereo not shown)
[30]
  IC50: 16.3 ± 0.2 µM
[31]
  IC50: 8.9 ± 1.9 µM
[32]
  IC50: > 100 µM
[24]
  IC50: 17.9 ± 0.6 µM
[33]
  IC50: 9.8 ± 1.5 µM

## CN1C[C@H](c2cccc(F)c2)[C@@H](C(=O)C2CC[C@H]3[C@@H]4CC=C5C[C@@H](O)CC[C@]5(C)[C@H]4CC[C@]23C)[C@]12C(=O)Nc1ccccc12 (stereo partly shown) [23 (R = 3-FC6H4)]
[34]
  IC50: 4.6 ± 0.7 µM

## O=C(/C=C/c1ccc(Cl)cc1Cl)[C@H]1[C@H](c2ccc(Cl)cc2Cl)C2CSCN2[C@]12C(=O)Nc1ccccc12 (stereo partly shown) [49 (R = R^1 = 2,4-Cl2C6H3, R^2 = H)]
[35]
  IC50: 1.8 ± 0.3 µM
[36]
  IC50: 5 ± 0.245 µM
[37]
  IC50: 0.85 ± 0.2 µM
[38]
  IC50: 2 ± 0.6 µM

## CN1C[C@H](c2ccccc2Cl)[C@]2(NC(=S)N(CC34CC5CC(CC(C5)C3)C4)C2=O)[C@]12C(=O)Nc1ccc(Br)cc12 [89 (R = Br, R’ = 2-ClC6H4)]
[21]
  IC50: 7.2 ± 1.85 µM
[22]
  IC50: 7.63 ± 0.75 µM

## O=C(O)c1ccc(N2CCC3C(C2=O)C(c2cccc(Cl)c2F)C2(C(=O)Nc4cc(Cl)ccc42)N3CC2CC2)cc1 (stereo not shown) [compound 63]
[11]
  IC50: 0.547 µM
[12]
  IC50: > 25 µM
[13]
  IC50: 0.004 µM

## O=C1Nc2ccc(Br)cc2C12N(c1ccccc1Cl)N=C(c1cccc(Cl)c1)N2c1cccc(Cl)c1 (stereo not shown)
[30]
  IC50: 13.9 ± 1.1 µM
[31]
  IC50: 7.6 ± 2.4 µM
[32]
  IC50: 21.4 ± 7.4 µM
[24]
  IC50: 17.7 ± 1.3 µM
[33]
  IC50: 9.5 ± 3.1 µM

## CCCN1C(=O)[C@]2(N[C@@H](c3ccc(F)cc3)[C@@]3(Sc4c(C(=O)C(=O)OC)c5ccccc5n4C3=O)[C@H]2C(=O)OC)c2ccc(Cl)cc21
[20]; MCF7, at 25 μg/mL
  cell viability: about 80%
